In US7820665B2, “Imidazopyridazine inhibitors of PI3 kinase for cancer treatment” (Amgen Inc., priority 2007, dated 2010) one finds IC50 data, which are given here for twelve compounds.

A word on the IC50: it is the concentration at which inhibition is half-maximal.

The test system of experiment [1] is phosphorylation of Akt at Serine 473 in U87 MG cells. In words: pAkt AlphaScreen (U87 Cell). Conditions: 2 h compound, pAkt Ser473 AlphaScreen. In kind it is cell-based. The method, then:
The pAkt AlphaScreen® assay (PerkinElmer, Waltham, Mass.) determines whether there is phosphorylation of Akt at Serine 473 by recruitment of a phosphospecific antibody. This assay was performed using U87 MG cells. The U87 growth media consists of MEM (Gibco, Carlsbad, Calif.) supplemented with 10% FBS (Gibco), 1× Non-Essential Amino Acids (Gibco) and 1× Penicillin/Streptomycin/Glutamine (Gibco). The cells were maintained weekly using 0.05% Trypsin (Gibco) and replated in 150 mm TC-Treated Culture Dishes (Corning, Corning, N.Y.).
The first day of the assay, the adherent cells were trypsinized, media was added to the loose cells and cells were mixed to a homogenous mixture. 0.5 ml of the homogenous mixture was counted on the Beckman Coulter® Vi-CELL™ XR (Fullerton, Calif.). 50 frames of cells were counted and the number of viable cells was determined. The cells were then diluted to 0.25 million cells per ml, and centrifuged at 200 rcf for 5 minutes. The media was removed and the cells were reconstituted in fresh media for plating. The cells were plated at 20 μl per well on the PerkinElmer® Flexprop PLUS in Low Volume 384 Well White Tissue Culture Plates (Corning) with a final cell density of 5K cells per well. The plates were incubated overnight at 37° Celsius, 5% CO2.
On the second day, the compound plates were prepared, the cells were treated with compound and the pAkt reaction mix was added to the cell lysate. 384 well compound plates were prepared containing 1 μl of compound per well starting at 5 mM and diluted 1:2 across the row, resulting in a 22 well serial dilution. 39 μl of growth media was added to the compound plate in rows 1-22 using the PerkinElmer® FlexDrop PLUS resulting in a DMSO concentration of 2.5%. The cell plates and diluted compound plates were put onto the VELOCITY11™ VPREP™ 384 ST where the compound plate was mixed and 5 μl of serially diluted compound or controls was added to the cell plate. The final concentration of the compounds was 25 μM serially diluted to 11.9 pM in 0.5% DMSO. The cell plates were then incubated with compound for two hours at 37° Celsius, 5% CO2. After two hours, the media in the cell plates was aspirated using the BioTek® ELx405HT plate washer (Winooski, Vt.) removing the majority of media and compound without disturbing the adherent U87 cells. The following assay reagents are components of the SureFire® Akt (Ser 473) Phosphorylation 50K Point Kit (TGR BioSciences, Adelaide, Australia) and an IgG Detection Kit (PerkinElmer, Waltham, Mass.). 5 μl of 1× Lysis Buffer was added to each well using the PerkinElmer® FlexDrop PLUS. The plates were then incubated at room temperature on a shaker for ten minutes. The AlphaScreen® reaction was prepared under low light conditions (subdued or green light) including p-Akt (Ser 473) Reaction Buffer, Dilution Buffer, Activation Buffer, Acceptor Beads and Donor Beads at a ratio of 40:20:10:1:1 respectively. The AlphaScreen® reaction was added to the cell lysate at 6 μl per well using the PerkinElmer® FlexDrop PLUS. The plates were placed in a humid environment to reduce edge effects and incubated overnight at room temperature with restricted air flow in the dark.
On the final day of the experiment, the plates were read on the PerkinElmer® EnVision™ 2103 Multilable Reader using the standard AlphaScreen® readout. The POC is calculated and the data is analyzed to report the IC50 IP for pAkt at Serine 473.
In general terms: Bead proximity is the source of the signal in Alpha formats.

Experiment [2] relates to Akt phosphorylation at Ser473 in HCT116 cells. In words: Cell-based phospho-AKT Ser473 assay (HCT116 Cell), MSD sandwich immunoassay.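 Further: IGF-1 added at 100 ng/mL for 15 min after compound treatment, electrochemiluminescent readout of phospho-Akt, DMSO-only wells define maximum signal, IC50 reflects inhibition of phosphorylation.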
From the text: This assay determines the ability of a compound to inhibit the phosphorylation of Serine 472 in Akt using a MSD based sandwich immunoassay (Meso Scale Detection, Meso Scale Discovery (MSD), Gaithersburg, Md.). HCT116 human colon carcinoma cell lines can be grown in McCoy's 5A growth medium (GIBCO, Carlsbad, Calif.) containing 10% FBS (GIBCO, Carlsbad, Calif.) and X1 Penicillin-streptomycin-glutamine (GIBCO, Carlsbad, Calif.). Prior to the assay, cells can be detached from the culture flask with trypsin, and re-suspended in complete media to give a final concentration of 1.6×10^5 cells per mL. Aliquots (100 μl) of the HCT116 cell suspension can be seeded into each well of a 96 well tissue culture plate to give a final density of 16,000 cells per well. Cells can then be incubated overnight at 37° C.
The following day the cells can be treated with serially diluted test compounds and incubated for 2 hours at 37° C. The culture media on the HCT 116 cells can be replaced with 189 μL McCoys media, supplemented with 0.1% BSA (ICN Biomedicals, Inc., Costa Mesa, Calif.). […] Aliquots (1 μL) of serially-diluted compounds can be transferred to 96 well tissue culture plates containing the HCT 116 cells. […] As a maximum response control, wells can contain 0.5% DMSO in place of compound. The plates can be mixed at 700 rpm for 2 min to ensure even distribution of the test compound and incubated for 2 hours at 37° C. Cells can then be stimulated with insulin-like growth factor 1 (Sigma, St Louis, Mo.) at final concentration of 100 ng/mL for 15 minutes at 37° C. The media can then be removed and the cells treated with 80 μL cell-lysis buffer (MSD) containing a cocktail of protease and phosphatase inhibitors for one hour at 4° C.
25 μL Cell lysate can then be transferred to pre-blocked MSD assay plates pre-coated with a capture antibody specific for Akt, and the plates can be incubated for 2 hours at room temperature. The cell lysates can then be removed and plates can then be washed four times with 200 μl per well of Tris wash buffer (500 mM Tris, PH 7.5, 1.5 M NaCl, 0.2% Tween-20). Subsequently cells can be incubated for 1 hour at room temperature with a 25 μL solution containing the detection antibody, anti-phospho Akt (Ser 473) labeled with an electrochemiluminescent compound (Meso Scale Discovery SULPHO-TAG™ label, MSD, Gaithersburg, Md.). The detection antibody can be removed and plates can then be washed four times with 200 μL per well of Tris wash buffer. An aliquot of 150 μL of diluted MSD read buffer can then be applied to each well, and the electrochemiluminescent signal can be measured using a MSD SECTOR™ plate reader (Meso Scale Discovery, Gaithersburg, Md.). This instrument measures the intensity of emitted light to determine a quantitative measure of phosphorylated Akt in each well. The dose-response data obtained with each compound can be analyzed and the IC50 inhibition of Akt phosphorylation at Ser473 can be calculated.
The target of the next experiment is T1, PI3Kα (Homo sapiens, UniProt P42336).
T1 construct: Full length p110 subunits of PI3K α, β and δ, N-terminally labeled with polyHis tag; polyHis (N); made in house; host or cells: Sf9 insect cells (baculovirus)
In words: In vitro PI3 kinase enzyme assay (PI3K ATPLoss). In kind it is biochemical. Conditions: recombinant p110α/p85, residual ATP by bioluminescence. The method, then: Full length p110 subunits of PI3K α, β and δ, N-terminally labeled with polyHis tag, can be co-expressed with p85 with Baculo virus expression vectors in sf9 insect cells. P110/p85 heterodimers can be purified by sequential Ni-NTA, Q-HP, Superdex-100 chromatography. Purified α, β and δ isozymes can be stored at −20° C. in 20 mM Tris, pH 8, 0.2M NaCl, 50% glycerol, 5 mM DTT, 2 mM Na cholate. Truncated PI3Kγ, residues 114-1102, N-terminally labeled with polyHis tag, can be expressed with Baculo virus in Hi5 insect cells. The γ isozyme can be purified by sequential Ni-NTA, Superdex-200, Q-HP chromatography. The γ isozyme can be stored frozen at −80° C. in NaH2PO4, pH 8, 0.2M NaCl, 1% ethylene glycol, 2 mM β-mercaptoethanol.
PI3K enzyme assays (alpha, beta, delta and gamma) can be performed in 25 μL with the above final concentrations of components in white polyproplyene plates. Phosphatidyl inositol phosphoacceptor, PtdIns(4,5)P2 (e.g. P4508) can be obtained from Echelon Biosciences, Salt Lake City, Utah. The ATPase activity of the alpha and gamma isozymes may not be greatly stimulated by PtdIns(4,5)P2 under these conditions, it can be omitted from the assay of these isozymes. Test compounds can be dissolved in DMSO and diluted with three-fold serial dilutions. The compound in DMSO (1 μL) may be added per test well, and the inhibition relative to reactions containing no compound, with and without enzyme can be determined. After assay incubation at RT, the reaction can be stopped and residual ATP can be determined by addition of an equal volume of a commercial ATP bioluminescence kit (Perkin Elmer EasyLite, Perkin Elmer, Waltham, Mass.) according to the manufacturer's instructions, and detected using an Analyst GT luminometer.

Where [3] appears, read: Homo sapiens, HCT-116, 2 h, read-out: HCT116 Cell IC50, HCT116 cells, 2 h compound, IGF-1 stimulation, pAkt Ser473.
Setting [4] is: read-out: HCT116 Cell IC50, HCT116 cells, 2 h compound, IGF-1 stimulation, pAkt Ser473.

Read-outs that look alike come from different tables or passages of the source.

T1 sequence (P42336 whole entry, species assumed): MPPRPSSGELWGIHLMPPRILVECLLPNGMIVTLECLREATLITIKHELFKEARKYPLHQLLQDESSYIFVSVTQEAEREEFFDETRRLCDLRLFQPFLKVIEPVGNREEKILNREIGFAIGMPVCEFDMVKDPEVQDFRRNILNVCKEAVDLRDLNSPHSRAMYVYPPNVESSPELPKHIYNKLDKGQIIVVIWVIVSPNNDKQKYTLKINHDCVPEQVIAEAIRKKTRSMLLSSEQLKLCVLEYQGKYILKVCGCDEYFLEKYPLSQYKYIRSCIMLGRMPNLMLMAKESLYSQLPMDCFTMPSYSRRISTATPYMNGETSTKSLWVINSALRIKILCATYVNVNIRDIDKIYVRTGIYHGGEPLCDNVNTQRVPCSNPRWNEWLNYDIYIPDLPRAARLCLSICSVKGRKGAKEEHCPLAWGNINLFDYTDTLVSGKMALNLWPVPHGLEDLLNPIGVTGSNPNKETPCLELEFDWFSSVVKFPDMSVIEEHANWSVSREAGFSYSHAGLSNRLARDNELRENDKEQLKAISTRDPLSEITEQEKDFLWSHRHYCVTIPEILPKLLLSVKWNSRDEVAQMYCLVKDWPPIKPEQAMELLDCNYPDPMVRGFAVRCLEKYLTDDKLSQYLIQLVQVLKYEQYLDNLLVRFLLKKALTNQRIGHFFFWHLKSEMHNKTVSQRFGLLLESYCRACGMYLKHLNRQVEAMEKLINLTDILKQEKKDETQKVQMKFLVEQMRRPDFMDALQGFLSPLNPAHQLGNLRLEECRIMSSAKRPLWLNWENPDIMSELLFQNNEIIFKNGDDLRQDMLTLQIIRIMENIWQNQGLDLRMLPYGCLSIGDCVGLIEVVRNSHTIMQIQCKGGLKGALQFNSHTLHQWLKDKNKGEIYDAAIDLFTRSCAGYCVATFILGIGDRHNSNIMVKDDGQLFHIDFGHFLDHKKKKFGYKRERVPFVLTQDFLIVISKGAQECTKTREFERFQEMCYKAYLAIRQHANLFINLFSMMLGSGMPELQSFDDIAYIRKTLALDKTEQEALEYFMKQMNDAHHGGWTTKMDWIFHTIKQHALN
T1 sequence (P27986 whole entry partner, species assumed): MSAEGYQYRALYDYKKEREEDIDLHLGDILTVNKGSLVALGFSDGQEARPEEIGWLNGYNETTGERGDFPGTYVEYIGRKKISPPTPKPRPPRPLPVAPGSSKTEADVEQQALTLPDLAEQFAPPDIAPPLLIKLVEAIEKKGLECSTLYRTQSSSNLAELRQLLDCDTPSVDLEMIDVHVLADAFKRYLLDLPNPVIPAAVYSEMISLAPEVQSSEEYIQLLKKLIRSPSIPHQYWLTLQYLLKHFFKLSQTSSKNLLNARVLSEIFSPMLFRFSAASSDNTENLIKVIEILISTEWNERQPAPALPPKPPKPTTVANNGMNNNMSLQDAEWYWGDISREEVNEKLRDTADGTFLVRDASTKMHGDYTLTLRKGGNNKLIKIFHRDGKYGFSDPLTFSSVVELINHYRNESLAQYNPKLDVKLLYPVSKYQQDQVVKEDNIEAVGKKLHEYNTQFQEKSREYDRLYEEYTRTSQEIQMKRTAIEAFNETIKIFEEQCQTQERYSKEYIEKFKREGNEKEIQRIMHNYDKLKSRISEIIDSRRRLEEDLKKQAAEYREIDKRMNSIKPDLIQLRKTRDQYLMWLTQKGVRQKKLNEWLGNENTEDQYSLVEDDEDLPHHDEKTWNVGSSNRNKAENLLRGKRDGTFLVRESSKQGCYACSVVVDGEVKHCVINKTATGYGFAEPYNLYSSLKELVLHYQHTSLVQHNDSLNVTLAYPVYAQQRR

On to `CNC(C)c1ccc(S(=O)(=O)Nc2cc(-c3ccc4nc(NC(C)=O)cn4n3)cnc2Cl)cc1` (single isomer, unassigned) [Example 38, N-(6-(6-chloro-5-(4-(1-(methylamino)ethyl)phenylsulfonamido)pyridin-3-yl)imidazo[1,2-b]pyridazin-2-yl)acetamide], for which the IC50 amounted to 31 nM in experiment [1] (Homo sapiens, U-87 MG, 2 h); 124 nM in experiment [2] (setting [3]); 6 nM at PI3Kα.
Consider `CNC(C)c1ccc(S(=O)(=O)Nc2cc(-c3ccc4nc(NC(C)=O)cn4n3)cnc2Cl)cc1` (single isomer, unassigned) [Example 39, N-(6-(6-chloro-5-(4-(1-(methylamino)ethyl)phenylsulfonamido)pyridin-3-yl)imidazo[1,2-b]pyridazin-2-yl)acetamide], for which the concentration for half-maximal inhibition (IC50) in experiment [1] was 28 nM; in experiment [2] (setting [4]), 105 nM; at PI3Kα, 8 nM.
Turning to `CC(=O)Nc1cn2nc(-c3cnc(Cl)c(NS(=O)(=O)c4ccc(F)cc4)c3)ccc2n1` [Example 12, N-(6-(6-chloro-5-(4-fluorophenylsulfonamido)pyridin-3-yl)imidazo[1,2-b]pyridazin-2-yl)acetamide], the IC50 in experiment [1] (Homo sapiens, U-87 MG, 2 h) worked out at 14 nM; in experiment [2] (setting [3]) it was 31 nM; on PI3Kα, 7 nM.
In the same order, the values of `CC(=O)Nc1cn2nc(-c3cnc(Cl)c(NS(C)(=O)=O)c3)ccc2n1` [Example 19, N-(6-(6-Chloro-5-(methylsulfonamido)pyridin-3-yl)imidazo[1,2-b]pyridazin-2-yl)acetamide] are 133 nM, 218 nM and 5.7 nM.
For the compound `CC(=O)Nc1cn2cc(-c3cnc(Cl)c(NS(=O)(=O)c4ccc(F)cc4)c3)ccc2n1` [Example 28, N-(6-(6-Chloro-5-(4-fluorophenylsulfonamido)pyridin-3-yl)imidazo[1,2-a]pyridin-2-yl)acetamide], the IC50 in experiment [1] (Homo sapiens, U-87 MG, 2 h) turned out to be 118 nM; in experiment [2] (setting [4]), 46 nM; on PI3Kα, 9 nM.
Turning to `CC(=O)Nc1nc2ccc(-c3cnc(Cl)c(NS(=O)(=O)c4ccc(F)cc4)c3)cc2n1-c1ccccn1` [Example 32, N-(6-(6-Chloro-5-(4-fluorophenylsulfonamido)pyridin-3-yl)-1-(pyridin-2-yl)-1H-benzo[d]imidazol-2-yl)acetamide], the figures for the IC50 (in experiment [2] (setting [3]); on PI3Kα) were 2720 nM and 49 nM, respectively.
As to `CC(=O)Nc1cn2nc(-c3cnc(Cl)c(NS(=O)(=O)c4cccc(OC(F)F)c4)c3)ccc2n1` [Example 33, N-(6-(6-Chloro-5-(3-(difluoromethoxy)phenylsulfonamido)pyridin-3-yl)imidazo[1,2-b]pyridazin-2-yl)acetamide], the IC50 is 15 nM in experiment [1] (Homo sapiens, U-87 MG, 2 h); 24 nM in experiment [2] (setting [3]); 7 nM at PI3Kα.
For `CC(=O)Nc1cn2nc(-c3cnc(Cl)c(NS(=O)(=O)c4c(C)cccc4Cl)c3)ccc2n1` [Example 34, N-(6-(6-Chloro-5-(2-chloro-6-methylphenylsulfonamido)pyridin-3-yl)imidazo[1,2-b]pyridazin-2-yl)acetamide], in that order: 7 nM, 3 nM and 7 nM.
In the same order, the values of `CC(=O)Nc1cn2nc(-c3cnc(Cl)c(NS(=O)(=O)c4ccc(C(C)(C)O)cc4)c3)ccc2n1` [Example 35, N-(6-(6-Chloro-5-(4-(2-hydroxypropan-2-yl)phenylsulfonamido)pyridin-3-yl)imidazo[1,2-b]pyridazin-2-yl)acetamide] are 34 nM, 49 nM and 6 nM.
With `Nc1cn2nc(-c3cnc(Cl)c(NS(=O)(=O)c4ccc(F)cc4)c3)ccc2n1` [Example 36, N-(5-(2-Aminoimidazo[1,2-b]pyridazin-6-yl)-2-chloropyridin-3-yl)-4-fluorobenzenesulfonamide], the IC50 in experiment [1] (Homo sapiens, U-87 MG, 2 h) was 415 nM; in experiment [2] (setting [4]), 2430 nM; on PI3Kα, 83 nM.
For `CC(=O)Nc1cn2nc(-c3cnc(Cl)c(NS(=O)(=O)c4ccc(F)cc4Cl)c3)ccc2n1` [Example 40, N-(6-(6-Chloro-5-(2-chloro-4-fluorophenylsulfonamido)pyridin-3-yl)imidazo[1,2-b]pyridazin-2-yl)acetamide], the half-inhibitory concentration (IC50) in experiment [1] (Homo sapiens, U-87 MG, 2 h) came to 21 nM; in experiment [2] (setting [3]), 55 nM; on PI3Kα, 5 nM.
`CC(=O)Nc1cn2nc(-c3cnc(Cl)c(NS(=O)(=O)N4CCOCC4)c3)ccc2n1` [Example 41, N-(6-(6-Chloro-5-(morpholine-4-sulfonamido)pyridin-3-yl)imidazo[1,2-b]pyridazin-2-yl)acetamide]: the IC50 in experiment [1] (Homo sapiens, U-87 MG, 2 h) was determined as 47 nM; in experiment [2] (setting [3]), 75 nM; on PI3Kα, 6 nM.
